For data set [1] the following is noted: 298.15 K; 101.33 kPa; Liquid; Pycnometric method.
Data set [2] can be described thus: excess molar enthalpy (molar enthalpy of mixing); xn = mol fraction of the nth substance listed. The note with it: 298.15 K, 101 kPa, Liquid, Flow calorimetry.

This note sets out measurements from the NIST ThermoML archive (doi:10.1016/j.fluid.2007.07.063).

Numbers after ± are expanded uncertainties.

In general, mass density refers to mass per unit of volume. Turning to `CCCCCCCCO` [octan-1-ol], the mass density in data set [1] was 822.47 ± 0.83 kg/m3.

Consider `C=CCCCCCC` [oct-1-ene] + CCCO, for which the excess molar enthalpy is 0.104 ± 0.00526 kcal/mol in data set [2] (x2 = 0.094); 0.154 ± 0.00789 kcal/mol in data set [2] (x2 = 0.189); 0.183 ± 0.00932 kcal/mol in data set [2] (x2 = 0.302); 0.179 ± 0.00908 kcal/mol in data set [2] (x2 = 0.398); 0.163 ± 0.00837 kcal/mol in data set [2] (x2 = 0.495); 0.143 ± 0.00717 kcal/mol in data set [2] (x2 = 0.593). Besides, the excess molar enthalpy in data set [2] (x2 = 0.693) turned out to be 0.117 ± 0.00598 kcal/mol; in data set [2] (x2 = 0.799) it was 0.0814 ± 0.00406 kcal/mol; in data set [2] (x2 = 0.899) it was 0.0435 ± 0.00222 kcal/mol.

`CCCO` [propan-1-ol]: the mass density in data set [1] came out at 799.65 ± 0.72 kg/m3.

For `C=CCCCCCC` [oct-1-ene] + CCCCCCCCO, the excess molar enthalpy worked out at 0.0699 ± 0.00359 kcal/mol in data set [2] (x2 = 0.097); 0.0935 ± 0.00478 kcal/mol in data set [2] (x2 = 0.194); 0.104 ± 0.00526 kcal/mol in data set [2] (x2 = 0.292); 0.103 ± 0.00526 kcal/mol in data set [2] (x2 = 0.391); 0.0942 ± 0.00478 kcal/mol in data set [2] (x2 = 0.49); 0.0814 ± 0.00406 kcal/mol in data set [2] (x2 = 0.6). The results for the excess molar enthalpy in data set [2] (x2 = 0.699), in data set [2] (x2 = 0.799) and in data set [2] (x2 = 0.899) were 0.0631 ± 0.00311 kcal/mol, 0.0429 ± 0.0022 kcal/mol and 0.0188 ± 0.00098 kcal/mol, respectively.

With `C=CCCCCCC` [oct-1-ene] + CCCCCCO, the excess molar enthalpy was 0.0801 ± 0.00406 kcal/mol in data set [2] (x2 = 0.096); 0.105 ± 0.00526 kcal/mol in data set [2] (x2 = 0.192); 0.12 ± 0.00598 kcal/mol in data set [2] (x2 = 0.307); 0.118 ± 0.00598 kcal/mol in data set [2] (x2 = 0.403); 0.106 ± 0.00526 kcal/mol in data set [2] (x2 = 0.5); 0.0912 ± 0.00454 kcal/mol in data set [2] (x2 = 0.598). Further, the figures for the excess molar enthalpy in data set [2] (x2 = 0.697), in data set [2] (x2 = 0.802) and in data set [2] (x2 = 0.9) were 0.0724 ± 0.00359 kcal/mol, 0.0491 ± 0.00263 kcal/mol and 0.0233 ± 0.00122 kcal/mol, respectively.

Take `CCCCCCCCCCO` [decan-1-ol]: the mass density in data set [1] is given as 826.31 ± 0.74 kg/m3.

Consider `CCCCCCO` [hexan-1-ol], for which the mass density in data set [1] is on record as 815.4 ± 0.78 kg/m3.

Regarding `C=CCCCCCC` [oct-1-ene] + CCCCO, the excess molar enthalpy in data set [2] (x2 = 0.095) came out at 0.0949 ± 0.00478 kcal/mol; in data set [2] (x2 = 0.209) it was 0.14 ± 0.00717 kcal/mol; in data set [2] (x2 = 0.304), 0.154 ± 0.00789 kcal/mol; in data set [2] (x2 = 0.4) it was 0.149 ± 0.00765 kcal/mol; in data set [2] (x2 = 0.497), 0.132 ± 0.00669 kcal/mol; in data set [2] (x2 = 0.595), 0.109 ± 0.0055 kcal/mol. The figures for the excess molar enthalpy in data set [2] (x2 = 0.702), in data set [2] (x2 = 0.8) and in data set [2] (x2 = 0.899) were 0.0832 ± 0.0043 kcal/mol, 0.0565 ± 0.00287 kcal/mol and 0.0286 ± 0.00148 kcal/mol, respectively.

Regarding `CCCCO` [butan-1-ol], the mass density in data set [1] came out at 805.71 ± 0.73 kg/m3.

Turning to `C=CCCCCCC` [oct-1-ene] + CCCCCCCCCCO, the excess molar enthalpy in data set [2] (x2 = 0.097) came out at 0.0643 ± 0.00335 kcal/mol; in data set [2] (x2 = 0.195), 0.0875 ± 0.00454 kcal/mol; in data set [2] (x2 = 0.293) it was 0.0956 ± 0.00478 kcal/mol; in data set [2] (x2 = 0.406) it was 0.0924 ± 0.00478 kcal/mol; in data set [2] (x2 = 0.504), 0.0834 ± 0.0043 kcal/mol; in data set [2] (x2 = 0.602), 0.072 ± 0.00359 kcal/mol. In addition, the excess molar enthalpy in data set [2] (x2 = 0.7) was 0.0578 ± 0.00287 kcal/mol; in data set [2] (x2 = 0.8) it was 0.0397 ± 0.00203 kcal/mol; in data set [2] (x2 = 0.902), 0.0182 ± 0.000956 kcal/mol.

Take `C=CCCCCCC` [oct-1-ene]: in data set [1], the mass density is reported as 710.88 ± 0.64 kg/m3.
